From patent US8148388B2, “2,4 (4,6) pyrimidine derivatives” (Janssen Pharmaceutica, N.V., priority 2004, dated 2012) come the findings set out here.

Where two headings read alike, the source gives them in different places.

By inhibition is commonly meant how much of the control response was suppressed. As usually defined, the melting point is the temperature, or range, at which the solid turns liquid.

One series addresses Yes (h) (Homo sapiens, UniProt P07947). The experiment in a line: Yes human kinase assay (glass-fiber filter). In kind it is biochemical. As to conditions: test concentration of 10^−6M; read-out: C11 score (inhibition of Yes human). In a few lines:
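Yes (h) (5-10 mU) with 0.1 mg/ml poly(Glu, Tyr) 4:1 in 8 mM MOPS pH 7.0, 0.2 mM EDTA, 10 mM MgAcetate and [γ-^33P-ATP], 40 minutes at room temperature. Stopped with phosphoric acid; substrate-bound ^33P counted on glass-fiber filter by scintillation.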

The next series addresses Abl (h) (Homo sapiens, UniProt P00519). The experiment in a line: Abl human kinase assay (glass-fiber filter). In kind it is biochemical. As to conditions: test concentration of 10^−6M; read-out: C1 score (inhibition of Abl human).
The conditions of series [1]: amide bond, DMF, 25.0 °C.
In a further series the target is Lyn (h) (Homo sapiens, UniProt P07948). The experiment in a line: Lyn human kinase assay (glass-fiber filter). In kind it is biochemical. As to conditions: test concentration of 10^−6M; read-out: C10 score (inhibition of Lyn human). In a few lines: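 Human Lyn (5-10 mU) phosphorylating poly(Glu,Tyr) 4:1 at 0.1 mg/ml with [γ-33P]ATP (concentration as required) in 50 mM Tris pH 7.5, 10 mM Mg acetate, 40 min at room temperature. Stopped with phosphoric acid; substrate-bound radioactivity counted on glass-fibre filter.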
Chain of Lyn (h) (P07948 whole entry): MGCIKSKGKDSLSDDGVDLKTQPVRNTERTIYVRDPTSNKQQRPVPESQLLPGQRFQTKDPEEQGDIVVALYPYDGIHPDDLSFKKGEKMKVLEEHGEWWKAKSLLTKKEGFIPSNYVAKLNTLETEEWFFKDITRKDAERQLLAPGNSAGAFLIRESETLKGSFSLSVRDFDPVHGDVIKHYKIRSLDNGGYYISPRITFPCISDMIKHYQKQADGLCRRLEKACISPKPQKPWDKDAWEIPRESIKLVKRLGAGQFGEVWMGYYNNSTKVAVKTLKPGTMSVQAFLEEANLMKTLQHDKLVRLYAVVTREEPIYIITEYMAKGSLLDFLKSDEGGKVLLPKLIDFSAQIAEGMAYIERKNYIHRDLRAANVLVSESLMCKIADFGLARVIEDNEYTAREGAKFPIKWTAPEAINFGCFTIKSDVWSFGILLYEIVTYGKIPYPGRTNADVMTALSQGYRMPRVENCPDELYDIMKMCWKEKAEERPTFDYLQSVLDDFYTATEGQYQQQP

A further series has as its target Fms (h) (Homo sapiens, UniProt P07333). The experiment in a line: Fms human kinase assay (glass-fiber filter). As to conditions: test concentration of 10^−6M; read-out: C7 score (inhibition of Fms human). In kind it is biochemical. In a few lines:
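Radiometric filter-binding assay: Fms (5-10 mU) with 250 μM peptide substrate and [γ-33P]ATP in 8 mM MOPS pH 7.0, 10 mM Mg acetate, 40 min at room temperature. Reaction stopped with phosphoric acid; substrate-bound 33P counted on P30 filtermat.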

Another series concerns the target EGFR (h) (Homo sapiens, UniProt P00533). Kind of series: EGFR human kinase assay (glass-fiber filter). In kind it is biochemical. As to conditions: test concentration of 10^−6M; read-out: C4 score (inhibition of EGFR human). In a few lines:
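Human EGFR (5-10 mU) phosphorylated 0.1 mg/ml poly(Glu, Tyr) 4:1 in 8 mM MOPS pH 7.0, 0.2 mM EDTA, 10 mM MnCl2, 10 mM MgAcetate with [γ-33P]ATP at unspecified concentration. Incubation lasted 40 minutes at room temperature, was stopped with phosphoric acid, and filter-bound 33P was counted by scintillation.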

The target in a further series is CSK (h) (Homo sapiens, UniProt P41240). The experiment in a line: CSK human kinase assay (glass-fiber filter). In kind it is biochemical. As to conditions: test concentration of 10^−6M; read-out: C2 score (inhibition of CSK human). Here is the method: In the glass-fiber filter technology the activity of the kinase of interest is measured using an appropriate substrate that is incubated with the aforementioned kinase protein in the presence of (^33P) radiolabeled ATP. (^33P) Phosphorylation of the substrate is subsequently measured as radioactivity bound on a glass fiber-filter.
Chain of CSK (h) (P41240 whole entry): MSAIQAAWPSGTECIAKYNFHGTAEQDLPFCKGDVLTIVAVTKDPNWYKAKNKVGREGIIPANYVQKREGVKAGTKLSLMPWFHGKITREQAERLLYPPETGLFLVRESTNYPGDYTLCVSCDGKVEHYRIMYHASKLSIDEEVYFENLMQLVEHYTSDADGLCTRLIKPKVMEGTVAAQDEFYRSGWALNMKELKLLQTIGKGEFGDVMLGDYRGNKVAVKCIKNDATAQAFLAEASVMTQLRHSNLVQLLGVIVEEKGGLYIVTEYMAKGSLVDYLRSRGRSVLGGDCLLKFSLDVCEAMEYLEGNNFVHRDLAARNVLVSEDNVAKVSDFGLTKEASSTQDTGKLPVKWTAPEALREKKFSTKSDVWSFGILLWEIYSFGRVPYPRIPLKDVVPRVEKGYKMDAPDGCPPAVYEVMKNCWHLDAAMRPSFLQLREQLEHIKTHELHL
All kinases are pre-diluted to a 10× working concentration prior to addition into the assay. The composition of the dilution buffer for each kinase is detailed below.
In a final reaction volume of 25 μl, CSK (h) (5-10 mU) is incubated with 50 mM Tris pH 7.5, 0.1 mM EGTA, 0.1 mM Na3VO4, 0.1% β-mercaptoethanol, 0.1 mg/ml poly(Glu, Tyr) 4:1, 10 mM MnCl2, 10 mM MgAcetate and [γ-^33P-ATP] (specific activity approx. 500 cpm/pmol, concentration as required). The reaction is initiated by the addition of the MgATP mix. After incubation for 40 minutes at room temperature, the reaction is stopped by the addition of 5 μl of a 3% phosphoric acid solution. 10 μl of the reaction is then spotted onto a Filtermat A and washed three times for 5 minutes in 75 mM phosphoric acid and once in methanol prior to drying and scintillation counting.

A further series addresses cSRC (h) (Homo sapiens, UniProt P12931). Kind of series: cSRC human kinase assay (glass-fiber filter). In kind it is biochemical. As to conditions: test concentration of 10^−6M; read-out: C3 score (inhibition of cSRC human). In a few lines: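 Radiometric assay: kinase and substrate are incubated with [33P]ATP, with the reaction started by MgATP mix. The reaction is spotted on P30 filtermat, washed in 75 mM phosphoric acid and methanol, and the bound 33P is measured by scintillation counting.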

The target of the next series is Fes (h) (Homo sapiens, UniProt P07332). The experiment in a line: Fes human kinase assay (glass-fiber filter). In kind it is biochemical. As to conditions: test concentration of 10^−6M; read-out: C4 score (inhibition of Fes human). In a few lines: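 Human Fes (5–10 mU) was incubated with 0.1 mg/ml poly(Glu,Tyr) 4:1 in 8 mM MOPS pH 7.0, 0.2 mM EDTA, 10 mM Mg acetate and [γ-33P]ATP for 40 min at room temperature. The reaction was stopped with phosphoric acid, and substrate phosphorylation was quantified by filter binding and scintillation counting.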

In another series the target is Flt3 (h) (Homo sapiens, UniProt P36888). The experiment in a line: Flt3 human kinase assay (glass-fiber filter). In kind it is biochemical. As to conditions: test concentration of 10^−6M; read-out: C6 score (inhibition of Flt3 human). In a few lines:
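Human Flt3 (5-10 mU) with 50 μM peptide substrate in 8 mM MOPS pH 7.0, 0.2 mM EDTA, 10 mM Mg acetate and [γ-33P]ATP (concentration as required), 40 min at room temperature. Reaction stopped with phosphoric acid; substrate 33P incorporation counted on P30 glass-fiber filter.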

The next series addresses Lck (h) (Homo sapiens, UniProt P06239). The experiment in a line: Lck human kinase assay (glass-fiber filter). In kind it is biochemical. As to conditions: test concentration of 10^−6M; read-out: C9 score (inhibition of Lck human). In a few lines: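 Kinase activity measured as transfer of (^33P) from radiolabeled MgATP to substrate, captured on P30 glass-fiber filtermat, washed in 75 mM phosphoric acid and methanol, then scintillation counted.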

Chain of Yes (h) (P07947 whole entry): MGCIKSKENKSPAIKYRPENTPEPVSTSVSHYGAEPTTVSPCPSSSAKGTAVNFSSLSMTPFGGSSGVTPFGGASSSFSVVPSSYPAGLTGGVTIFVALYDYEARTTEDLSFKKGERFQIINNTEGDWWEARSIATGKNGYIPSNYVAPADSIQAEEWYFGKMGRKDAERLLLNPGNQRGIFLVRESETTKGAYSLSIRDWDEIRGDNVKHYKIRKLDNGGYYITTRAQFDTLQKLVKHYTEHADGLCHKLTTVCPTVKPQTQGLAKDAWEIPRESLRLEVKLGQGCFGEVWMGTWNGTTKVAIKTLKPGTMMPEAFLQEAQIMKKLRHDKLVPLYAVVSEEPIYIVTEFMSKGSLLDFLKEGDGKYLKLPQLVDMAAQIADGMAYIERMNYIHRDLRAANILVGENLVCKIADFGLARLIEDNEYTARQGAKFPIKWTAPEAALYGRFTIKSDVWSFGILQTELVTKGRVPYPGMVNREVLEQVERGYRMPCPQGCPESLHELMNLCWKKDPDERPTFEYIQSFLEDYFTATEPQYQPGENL
Chain of Abl (h) (P00519 whole entry): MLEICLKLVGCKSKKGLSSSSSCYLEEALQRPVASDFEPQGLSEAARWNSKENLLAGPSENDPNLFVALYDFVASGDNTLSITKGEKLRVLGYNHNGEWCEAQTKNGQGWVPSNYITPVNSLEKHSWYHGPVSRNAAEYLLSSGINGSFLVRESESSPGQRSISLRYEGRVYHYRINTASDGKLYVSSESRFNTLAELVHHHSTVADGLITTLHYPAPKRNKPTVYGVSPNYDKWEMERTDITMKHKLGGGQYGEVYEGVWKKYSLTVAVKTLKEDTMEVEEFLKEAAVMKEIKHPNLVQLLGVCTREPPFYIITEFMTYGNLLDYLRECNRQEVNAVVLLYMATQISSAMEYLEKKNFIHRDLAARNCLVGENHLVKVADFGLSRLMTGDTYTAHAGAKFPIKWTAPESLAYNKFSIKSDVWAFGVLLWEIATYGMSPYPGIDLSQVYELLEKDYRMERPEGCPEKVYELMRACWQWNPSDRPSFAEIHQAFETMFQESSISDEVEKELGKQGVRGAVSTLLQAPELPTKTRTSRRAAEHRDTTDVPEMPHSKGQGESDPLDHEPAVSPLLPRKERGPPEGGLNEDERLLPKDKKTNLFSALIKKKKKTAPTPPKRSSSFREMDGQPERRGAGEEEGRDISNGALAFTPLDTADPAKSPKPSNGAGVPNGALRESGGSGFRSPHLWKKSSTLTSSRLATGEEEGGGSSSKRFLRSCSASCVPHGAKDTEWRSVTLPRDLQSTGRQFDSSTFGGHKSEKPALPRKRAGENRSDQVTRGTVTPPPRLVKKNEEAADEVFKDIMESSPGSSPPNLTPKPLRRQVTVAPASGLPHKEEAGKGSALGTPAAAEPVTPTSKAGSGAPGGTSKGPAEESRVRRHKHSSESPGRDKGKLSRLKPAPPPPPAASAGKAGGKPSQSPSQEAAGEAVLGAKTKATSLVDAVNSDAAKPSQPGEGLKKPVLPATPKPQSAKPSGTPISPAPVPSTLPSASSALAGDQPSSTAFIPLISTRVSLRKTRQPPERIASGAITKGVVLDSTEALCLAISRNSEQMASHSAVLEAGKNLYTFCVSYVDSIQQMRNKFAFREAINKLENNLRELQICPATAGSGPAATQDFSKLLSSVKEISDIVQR
Chain of EGFR (h) (P00533 25-1210): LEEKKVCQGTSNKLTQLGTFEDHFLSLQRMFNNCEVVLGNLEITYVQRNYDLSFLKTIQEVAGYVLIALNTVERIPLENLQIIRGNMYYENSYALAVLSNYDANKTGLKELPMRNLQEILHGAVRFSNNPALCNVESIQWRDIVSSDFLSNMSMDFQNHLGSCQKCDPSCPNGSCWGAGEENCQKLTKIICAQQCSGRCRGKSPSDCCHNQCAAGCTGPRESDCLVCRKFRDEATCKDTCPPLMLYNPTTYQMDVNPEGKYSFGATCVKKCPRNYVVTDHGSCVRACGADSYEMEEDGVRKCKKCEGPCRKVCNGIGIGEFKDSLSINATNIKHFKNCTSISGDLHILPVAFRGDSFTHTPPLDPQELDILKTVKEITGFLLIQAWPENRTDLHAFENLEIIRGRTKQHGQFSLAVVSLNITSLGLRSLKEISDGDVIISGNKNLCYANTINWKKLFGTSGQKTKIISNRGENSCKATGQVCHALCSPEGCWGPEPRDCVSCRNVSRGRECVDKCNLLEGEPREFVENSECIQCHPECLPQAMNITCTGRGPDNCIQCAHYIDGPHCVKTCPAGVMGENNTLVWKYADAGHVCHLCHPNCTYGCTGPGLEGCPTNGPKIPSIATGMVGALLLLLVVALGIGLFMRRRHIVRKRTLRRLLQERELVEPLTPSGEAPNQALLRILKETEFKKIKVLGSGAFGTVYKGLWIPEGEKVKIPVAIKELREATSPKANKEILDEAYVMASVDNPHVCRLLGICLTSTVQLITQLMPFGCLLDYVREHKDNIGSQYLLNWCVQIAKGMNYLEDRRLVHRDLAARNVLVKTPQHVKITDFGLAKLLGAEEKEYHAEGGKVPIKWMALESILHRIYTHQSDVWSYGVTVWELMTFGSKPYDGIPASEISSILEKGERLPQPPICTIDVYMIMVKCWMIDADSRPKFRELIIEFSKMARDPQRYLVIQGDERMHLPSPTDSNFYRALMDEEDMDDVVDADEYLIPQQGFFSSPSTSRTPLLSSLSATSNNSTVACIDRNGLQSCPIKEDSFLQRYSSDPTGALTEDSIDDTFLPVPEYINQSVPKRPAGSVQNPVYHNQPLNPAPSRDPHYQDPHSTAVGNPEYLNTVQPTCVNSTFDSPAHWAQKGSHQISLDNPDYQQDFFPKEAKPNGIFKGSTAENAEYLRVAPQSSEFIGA
Chain of Lck (h) (P06239 whole entry): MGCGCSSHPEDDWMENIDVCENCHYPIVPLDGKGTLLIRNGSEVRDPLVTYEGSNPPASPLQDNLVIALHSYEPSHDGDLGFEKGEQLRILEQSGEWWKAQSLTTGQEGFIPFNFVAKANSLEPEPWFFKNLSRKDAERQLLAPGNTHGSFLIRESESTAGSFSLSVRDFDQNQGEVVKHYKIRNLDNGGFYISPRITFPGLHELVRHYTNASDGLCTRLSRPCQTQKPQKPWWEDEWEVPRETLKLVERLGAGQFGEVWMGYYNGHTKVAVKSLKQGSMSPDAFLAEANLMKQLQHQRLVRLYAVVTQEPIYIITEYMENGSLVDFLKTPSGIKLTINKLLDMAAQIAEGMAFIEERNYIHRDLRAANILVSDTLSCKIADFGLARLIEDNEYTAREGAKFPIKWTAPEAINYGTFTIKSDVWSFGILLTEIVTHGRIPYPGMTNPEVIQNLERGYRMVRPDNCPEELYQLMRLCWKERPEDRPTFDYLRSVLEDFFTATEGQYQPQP
Chain of cSRC (h) (P12931 whole entry): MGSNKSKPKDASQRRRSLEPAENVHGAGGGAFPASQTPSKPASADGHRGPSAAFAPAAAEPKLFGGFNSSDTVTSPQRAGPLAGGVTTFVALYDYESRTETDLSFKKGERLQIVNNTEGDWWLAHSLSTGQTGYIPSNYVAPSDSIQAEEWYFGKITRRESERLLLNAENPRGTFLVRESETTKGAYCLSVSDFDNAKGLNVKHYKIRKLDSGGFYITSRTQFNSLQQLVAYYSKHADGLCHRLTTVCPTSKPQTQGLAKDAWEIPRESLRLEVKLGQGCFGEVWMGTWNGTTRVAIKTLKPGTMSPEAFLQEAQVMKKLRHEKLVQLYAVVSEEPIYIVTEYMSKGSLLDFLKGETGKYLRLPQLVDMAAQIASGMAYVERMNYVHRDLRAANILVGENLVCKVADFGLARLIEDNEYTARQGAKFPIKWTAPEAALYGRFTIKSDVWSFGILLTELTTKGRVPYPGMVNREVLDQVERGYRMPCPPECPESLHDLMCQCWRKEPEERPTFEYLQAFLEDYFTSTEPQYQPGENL

Consider `O=C1NCCCCCCNC(=O)c2cccc(c2)Nc2cc(ncn2)Nc2cccc1c2` [Compound 8, 2,4,6,8,15,22-hexaazatetracyclo[22.3.1.1˜3,7˜.1˜9,13˜]triaconta-1(28),3,5,7(30),9,11,13(29),24,26-nonaene-14,23-dione], for which the melting point came out at 307 °C. The inhibition at 1 µM on Yes (h) is 10 to 30%. Also, on Abl (h), the inhibition at 1 µM fell in the range of 10 to 30%. In addition, in series [1] (from NCCCCCCNC(=O)c1cccc(Nc2cc(Nc3cccc(C(=O)O)c3)ncn2)c1, PyBOP, 3.45 mM, 1.5 h), the ring closure, yield of all isomers is 33.7%. The inhibition at 1 µM on Lyn (h) is 10 to 30%. Further, the inhibition at 1 µM at Fms (h) lay in the range of 30 to 60%. Moreover, on EGFR (h), the inhibition at 1 µM lay in the range of 10 to 30%. Further, on CSK (h), the inhibition at 1 µM fell in the range of 10 to 30%.
Consider `N#Cc1cnc2nc1Nc1cccc(c1)C(=O)NCCOc1cccc(c1)N2` [Compound 3, 18-oxa-2,4,8,15,25-pentaazatetracyclo[17.3.1.1˜3,7˜.1˜9,13˜]pentacosa-1(23),3,5,7(25),9,11,13(24),19,21-nonaene-6-carbonitrile, 14-oxo-], for which the melting point is greater than 260 °C. In addition, the inhibition at 1 µM at cSRC (h) was in the range of 10 to 30%. In addition, the inhibition at 1 µM on Yes (h) was 10 to 30%. In addition, at Fes (h), the inhibition at 1 µM fell in the range of 10 to 30%. Moreover, the ring closure, yield of all isomers in [1] (from N#Cc1cnc(Nc2cccc(OCCN)c2)nc1Nc1cccc(C(=O)O)c1, HBTU, 4.0 mM, 17.0 h) was determined as 15%. Also, the inhibition at 1 µM on Flt3 (h) lay in the range of 30 to 60%. Also, the inhibition at 1 µM on Fms (h) lay in the range of 30 to 60%. At CSK (h), the inhibition at 1 µM lay in the range of 10 to 30%. On Lck (h), the inhibition at 1 µM is 10 to 30%.
In turn, `COc1ccc2cc1OCCCNCCOc1ccc(Cl)cc1Nc1cc(ncn1)N2` [Compound 13, 1H,7H-6,2:8,12-dimetheno-13,20,1,3,5,7,17-benzodioxapentaazacyclodocosine, 23-chloro-14,15,16,17,18,19-hexahydro-11-methoxy-] returned a melting point greater than 260 °C. Further, the inhibition at 1 µM at cSRC (h) lay within 10 to 30%. Also, the inhibition at 1 µM on Yes (h) is greater than 80%. Further, at Abl (h), the inhibition at 1 µM lay in the range of 10 to 30%. On Lyn (h), the inhibition at 1 µM is greater than 80%. In addition, at EGFR (h), the inhibition at 1 µM was greater than 80%. For the same molecule, the inhibition at 1 µM at Lck (h) is 30 to 60%.
